# Test results from patent US20250281496A1, “METHODS OF TREATING NEUROPATHY USING FORETINIB AND COMPOSITIONS THEREOF” (INDIANA UNIVERSITY RESEARCH AND TECHNOLOGY CORPORATION, priority 2022, published 2025).
# “Also recorded” adds a separate entry of the source.
# Key:
# [1] = test system: experimental diabetic neuropathy; test: Lower extremity nerve histomorphology (sciatic and sural nerve) in STZ-diabetic mice; assay type: in vivo; conditions: 30 mg/kg oral daily, five weeks post-diabetes induction
# Procedure: In total, 20 mice were injected with 100 mg/kg bodyweight of streptozotocin (STZ, […], Sigma Aldrich) in 0.1M citrate buffer (pH 4.5) on two consecutive days respectively, to induce diabetes type 1^27. Prior to the first injection and in weekly intervals thereafter, all animals were weighted and underwent tail prick blood sugar measurements using a clinical grade monitoring system (Contour One, Ascensia Diabetes Care, Mississauga, Ontario) as previously described. Mice were considered diabetic when blood glucose was at least 15 mmol/L (270 mg/dl). Prior to diabetes induction the mice were block randomized into experimental groups (n=10 Foretinib treatment, n=5 vehicle treatment, n=5 non-treated diabetic control). An additional 5 non-diabetic animals served as a healthy control. Foretinib treatments started 1-week post-diabetes induction. Foretinib was prepared fresh daily by dissolving 6 mg Foretinib in 1 ml of 1% (Hydroxypropyl)-methyl cellulose (09963, Sigma Aldrich) and 0.2% sodium dodecyl sulfate ([…], Sigma Aldrich) in sterile H2O. […] A custom-trained deep learning model based on the open-source software AxonDeepSeg^29 determined axon diameter and myelin sheath thickness and g-ratio for entire nerve cross sections.
# [2] = test system: Embryonic rat sensory neurons; test: Myelination in cultured embryonic rat sensory neurons (MBP-positive area); assay type: cell-based; conditions: primary wt neuronal/SC co-cultures, 10 days since induction of myelination, n=4, p<0.0001
# Excerpt: A) Embryonic rat sensory neurons were harvested, dissociated and cultured. Myelination was induced in presence of Foretinib (right image) or vehicle only (left image). 10 days since induction of myelination the cultures were fixed and immunosatined for myelin basic protein (MBP) (green), bIII-tubulin (red) and DAPI (blue). Scale bar: […]. B) Quantitative representation of the area proportion occupied by MBP-positive myelin segments (as in A) n=4, p<0.0001.
# Rat sympathetic neurons = test: NGF withdrawal in compartmented cultures of sympathetic neurons; assay type: cell-based
# Procedure: A) Rat sympathetic neurons grown in compartmented cultures for one week in the presence of NGF were switched into the indicated conditions for 48 h and immunostained for βIII-tubulin (white). Schematics on the left show the configurations used. In the top panels, NGF was maintained in all compartments. In the center and bottom panels, NGF was withdrawn from all compartments. At the bottom panel and 500 nM foretinib (Foret) added to one of the sides and the center compartment. Fluorescence images show βIII-tubulin-positive axons in the sides compartment. At the right, enlarged images of the axons per condition. While the NGF deprived neurons degenerated (axonal beading and degradation in the central panel), Foretinib supplemented (lower panel) axons kept growing Red arrow at the top of the image indicates the distance of the axonal extension during 48 h since NGF withdrawal. Size bar: […].B) MNs were differentiated from healthy human iPS (Line ID 1016A)^62 as described^63. 3 day old MNs were treated with either 1 μM of Thapsigargin (Thaps) or 1 μM Tunicamycin (Tuni) and/or with either 0.5 uM of Foretinib. […] C) Quantitative representation of the results as in B. Error bars represent standard error; *p<0.05; ***p<0.005; t-test. […] E) Quantitative representation of changes in mouse body weight in dependence of the indicated IP daily doses of Foretinib. […]
# [3] = Pharmacokinetics: blood plasma concentration after single IP injection, mass spectrometry; assay type: in vivo, mice
# Procedure: A) Quantitative representation of changes in mouse body weight in dependence of the indicated IP daily doses of Foretinib (n=2 per dose). B) Changes in mouse blood plasma concentration of 5 mg/kg IP injected Foretinib during 48 hours after a single injection (n=3).
# It is expected that Foretinib will protect against the diabetes-induced loss of terminal axons and ensheathing SC. In our previous study, 30 mg/kg of foretinib was administered via daily gavage for a course of 5 weeks. Although reported as non-toxic, at this dose the drug, along with a strong neuroprotective effect, caused lethargic behavior, ruffled fur and weight loss requiring early termination of the experiment. Due to the substantial prevalence of type 2 diabetes, we will examine the effect of foretinib treatment on type 2 diabetic mice (db/db). To define the maximal tolerable dose, we treated wt mice by daily intraperitoneal (IP) injection of several various dosages of foretinib for 20 days, while assessing the mice weight and behavior. […] Next, to define the pharmacokinetic (PK) characteristics of the drug, we performed a mass spectrometry analysis of blood samples from wt mice treated with 5 mg/kg (n=3 mice per dose per time point). We observed that IP injection of 5 mg/kg of foretinib generated nearly 100 ng/ml blood concentration during first 4 hours, declining by 4 ng/ml/hour (FIG. 7B).
# [4] = test system: sympathetic and sensory neurons; conditions: in vitro, previously shown (ref 17); cited from earlier work
structure (smiles),measurement,setting,value
"COc1cc2c(Oc3ccc(NC(=O)C4(C(=O)Nc5ccc(F)cc5)CC4)cc3F)ccnc2cc1OCCCN1CCOCC1 [Foretinib, N1-[3-Fluoro-4-({6-methoxy-7-[3-(morpholin-4-yl)propoxy]quinolin-4-yl}oxy)phenyl]-N′1-(4-fluorophenyl)cyclopropane-1,1-dicarboxamide]","peripheral nerve histomorphology (axon diameter, myelin sheath thickness, g-ratio)",[1],did not affect peripheral nerve histomorphology
same,axonal myelination (area proportion of MBP-positive myelin segments),[2],significantly improved axonal myelination
same,axonal growth after NGF withdrawal,"Rat sympathetic neurons; 500 nM foretinib in center and one side compartment, 48 h, preliminary n=2","induced axonal growth, similarly to the NGF containing cultures; also recorded: greater axonal length of the neurons than neurons cultured with NGF"
same,cell body and axonal survival after NGF withdrawal,"Rat sympathetic neurons; 500 nM foretinib, 48 hours post NGF withdrawal",supported cell bodies and axonal survival
same,decline of blood concentration,"[3]; 5 mg/kg IP single injection, after first 4 hours",4 ng/mL/h
same,blood concentration during first 4 hours,"[3]; 5 mg/kg IP single injection, wt mice, n=3",~100 ng/mL
same,blood concentration expressed in molar units,"[3]; 5 mg/kg IP, conversion of 100 ng/ml",160 nM
same,axonal die-back under trophic deprivation,[4],prevents axonal die-back mechanisms
